Legend:
[1] = target: T1, CBC complex (CBP20 and CBP80) (Homo sapiens, UniProt P52298+Q09161); experiment: UV crosslinking of purified recombinant CBP20 and CBP80 (CBC complex), SDS-PAGE / Western blot; assay type: binding; conditions: purified recombinant CBP20 and CBP80, after UV irradiation
T1 construct: made in house
T1 sequence (P52298 1-156): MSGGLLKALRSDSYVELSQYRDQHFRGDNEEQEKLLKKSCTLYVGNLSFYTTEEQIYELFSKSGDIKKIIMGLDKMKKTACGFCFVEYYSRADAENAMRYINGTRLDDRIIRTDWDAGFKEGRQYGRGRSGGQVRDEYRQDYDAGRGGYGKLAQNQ
T1 sequence (Q09161 1-790): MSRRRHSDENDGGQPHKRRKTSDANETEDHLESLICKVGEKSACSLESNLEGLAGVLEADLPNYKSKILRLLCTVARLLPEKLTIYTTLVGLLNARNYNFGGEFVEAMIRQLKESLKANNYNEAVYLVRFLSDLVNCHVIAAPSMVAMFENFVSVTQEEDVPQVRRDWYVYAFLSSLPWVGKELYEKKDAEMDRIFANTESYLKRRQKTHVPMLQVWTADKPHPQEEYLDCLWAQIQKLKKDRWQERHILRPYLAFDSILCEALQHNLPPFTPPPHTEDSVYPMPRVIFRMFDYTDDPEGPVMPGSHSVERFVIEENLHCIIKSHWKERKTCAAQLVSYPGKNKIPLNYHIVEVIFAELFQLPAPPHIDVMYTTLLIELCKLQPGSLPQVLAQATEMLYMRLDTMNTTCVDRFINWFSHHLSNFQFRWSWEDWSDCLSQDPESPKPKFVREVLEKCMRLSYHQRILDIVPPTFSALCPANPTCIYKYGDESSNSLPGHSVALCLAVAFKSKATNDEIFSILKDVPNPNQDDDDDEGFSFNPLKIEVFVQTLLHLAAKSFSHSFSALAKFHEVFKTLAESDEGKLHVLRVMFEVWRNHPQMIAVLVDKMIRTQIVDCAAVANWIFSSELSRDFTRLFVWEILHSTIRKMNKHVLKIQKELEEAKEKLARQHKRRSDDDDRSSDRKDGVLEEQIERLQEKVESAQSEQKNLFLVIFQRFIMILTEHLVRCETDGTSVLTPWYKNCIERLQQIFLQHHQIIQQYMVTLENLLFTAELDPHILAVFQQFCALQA
Procedure: FIG. 2. Compound 1 interacts with the CBC complex. Purified recombinant CBP20 and CBP80 proteins were incubated with increasing concentrations of Compound 1 (left panel) or Compound 1-N-glucuronide (right panel, Gluc) and treated for 30 minutes with UV light. […] Left panel: from left to right, incubation with 0.1 (lane 1), 1 (lane 2), 10 (lane 3) and 50 μM (lane 4) of Compound 1. Right panel: from left to right, incubation with 1 (lane 1), 10 (lane 2), 50 (lane 3), 100 μM (lane 4) and 200 μM (lane 5) of Compound 1-N-glucuronide.
FIG. 3. Compound 1 promotes the interaction of CBP20 with CBP80. A) Purified recombinant CBP20 and CBP80 proteins were incubated with the indicated concentrations of Compound 1-N-glucuronide and they were either untreated (lanes 1-3), treated during 15 min (lanes 4-6) or 30 min (lanes 7-9) with UV light. Proteins were analyzed by SDS-PAGE and stained with Coomassie blue. […] B) Recombinant human CBC was incubated with Compound 1-N-glucuronide and treated with UV for 15 min. After crosslinking the proteins were resolved in SDS-PAGE and stained with Coomassie blue (left panel). Stained proteins (Band 4, Band 5 and Band 7) were digested with trypsin and analysed by mass spectrometry. […]

Recombinant human CBC = target: T2, Recombinant human CBC (Homo sapiens, UniProt P52298+Q09161); experiment: Gel-mobility shift assay: binding of capped RNA to the CBC complex; conditions: native gel; Compound 1 5-50 μM, Compound 1-N-glucuronide 5-100 μM, m7GpppG 12 mM
T2 construct: made in house
T2 sequence (P52298 1-156): T1 sequence (P52298 1-156)
T2 sequence (Q09161 1-790): T1 sequence (Q09161 1-790)
Procedure: FIG. 4. […] Recombinant human CBC was incubated with a capped RNA substrate and analyzed by native gel electrophoresis in order to resolve the different RNA and RNA-protein complexes: free RNA (lane 1), and CBC-RNA complexes (lanes 2-10) in the presence of 12 mM of m7GppG (lanes 10) or 5 μM, 10 μM or 50 μM of Compound 1 (lanes 2-4, respectively) or 5 μM, 10 μM, 50 μM or 100 μM of Compound 1-N-glucuronide ([…], respectively).
Gel-mobility shift assay in the presence of a m(7)GpppG cap analogue has been established according to the protocol described in Mazza et al. (Large-scale induced fit recognition of an m(7)GpppG cap analogue by the human nuclear cap-binding complex. EMBO J. 21, 5548-5557 (2002)).
Recombinant human CBC was incubated with a capped RNA substrate and analyzed by native gel electrophoresis in order to resolve the different RNA and RNA-protein complexes according to Mazza et al. (Large-scale induced fit recognition of an m(7)GpppG cap analogue by the human nuclear cap-binding complex. EMBO J. 21, 5548-5557 (2002).

[2] = target: SR protein splicing factor SRSF1 (Homo sapiens, UniProt Q07955); conditions: cited from earlier work
Sequence of SR protein splicing factor SRSF1 (Q07955 whole entry): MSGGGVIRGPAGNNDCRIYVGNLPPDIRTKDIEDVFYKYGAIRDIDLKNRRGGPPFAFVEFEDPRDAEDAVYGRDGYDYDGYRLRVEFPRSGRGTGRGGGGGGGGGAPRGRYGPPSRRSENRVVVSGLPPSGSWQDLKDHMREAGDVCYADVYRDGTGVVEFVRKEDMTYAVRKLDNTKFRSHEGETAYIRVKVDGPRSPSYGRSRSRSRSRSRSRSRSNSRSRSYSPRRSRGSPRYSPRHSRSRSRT

Structure (SMILES)	covalent bridging (UV crosslinking) between CBP20 and CBP80 [1]	competition for binding of capped RNA to the CBC complex (Recombinant human CBC)	production of key viral proteins ([2]; HIV-1)	splicing enhancer activity of SRSF1 [2]
O=C(O)[C@H]1O[C@@H](N(c2ccc(OC(F)(F)F)cc2)c2ccc3cccc(Cl)c3n2)[C@H](O)[C@@H](O)[C@@H]1O [Compound 1-N-glucuronide, 8-chloro-N-glucuronide-N-(4-(trifluoromethoxy)phenyl)quinolin-2-amine]	promote UV crosslinking of CBP20 and CBP80	neither Compound 1 nor Compound 1-N-glucuronide interfere		
Cc1c2ccnc(Cl)c2cc2c3cn(C)ccc-3nc12 [IDC16, 10-chloro-2,6-dimethyl-2H-pyrido[3′,4′:4,5]pyrrolo[2,3-g]isoquinoline]			suppresses the production of key viral proteins	interfere with splicing enhancer activity
Cn1c[n+]([C@@H]2O[C@H](COP(=O)(O)OP(=O)([O-])OP(=O)(O)OC[C@H]3O[C@@H](n4cnc5c(=O)[nH]c(N)nc54)[C@H](O)[C@@H]3O)[C@@H](O)[C@H]2O)c2nc(N)[nH]c(=O)c21 [m^7GpppG, reference compound]		competed		

From patent US10718770B2, “Methods for screening compounds for treating or preventing a viral infection or a virus-related condition” (ABIVAX, priority 2015, dated 2020)
